From article PMC9502754, “Novel Effective Fluorinated Benzothiophene-Indole Hybrid Antibacterials against S. aureus and MRSA Strains” (Pharmaceuticals, 2022)
pIC50: −log10 of the molar value.

Target: T1, MRSA pyruvate kinase (PK) (Staphylococcus aureus, UniProt Q2FG40)
T1 construct: gene pyk; His-tagged MRSA PK from S. aureus USA300 LAC *, pET-28a, expressed in E. coli
T1 sequence (Q2FG40 1-585): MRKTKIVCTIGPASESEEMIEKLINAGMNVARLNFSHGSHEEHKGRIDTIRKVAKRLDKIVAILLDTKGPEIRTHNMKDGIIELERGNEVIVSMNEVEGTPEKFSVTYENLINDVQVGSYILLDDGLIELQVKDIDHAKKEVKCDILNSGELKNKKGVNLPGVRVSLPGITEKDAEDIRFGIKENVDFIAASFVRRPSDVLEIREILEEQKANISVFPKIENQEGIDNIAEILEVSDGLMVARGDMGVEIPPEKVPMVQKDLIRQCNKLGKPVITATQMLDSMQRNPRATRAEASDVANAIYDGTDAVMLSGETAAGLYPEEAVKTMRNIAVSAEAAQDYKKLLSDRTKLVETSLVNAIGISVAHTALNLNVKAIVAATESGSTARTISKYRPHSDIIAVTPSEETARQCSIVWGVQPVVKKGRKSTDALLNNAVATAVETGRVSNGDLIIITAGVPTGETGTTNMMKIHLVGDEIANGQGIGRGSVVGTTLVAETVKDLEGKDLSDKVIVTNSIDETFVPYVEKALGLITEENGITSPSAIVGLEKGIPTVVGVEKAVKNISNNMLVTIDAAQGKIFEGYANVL
Assay: Kinase-Glo luminescence assay of ATP formed by purified PK from PEP and ADP
Format: biochemical

SMILES | pIC50
Oc1ccc2c(-c3c4cc(F)sc4cc4[nH]c5cc(O)ccc5c34)c[nH]c2c1 [3c, 2-Fluoro-4-(6-hydroxy-1H-indol-3-yl)-9H-thieno[2,3-b]carbazol-7-ol] | 5.80
Fc1cc2c(-c3c[nH]c4ccc(Cl)cc34)c3c(cc2s1)[nH]c1ccc(Cl)cc13 [3f, 6-Chloro-4-(5-chloro-1H-indol-3-yl)-2-fluoro-9H-thieno[2,3-b]carbazole] | 5.68
Fc1cc2cc3[nH]c4cc(Cl)ccc4c3c(-c3c[nH]c4cc(Cl)ccc34)c2s1 [4f, 7-Chloro-10-(6-chloro-1H-indol-3-yl)-2-fluoro-5H-thieno[3,2-b]carbazole] | 5.64
Fc1cc2c(-c3c[nH]c4ccc(Br)cc34)c3[nH]c4ccc(Br)cc4c3cc2s1 [6d, 8-Bromo-4-(5-bromo-1H-indol-3-yl)-2-fluoro-5H-thieno[3,2-b]carbazole] | 5.46
